What follows are molecules tested against human PAD4 (Homo sapiens (Human), UniProt Q9UM07) (assay: In Vitro PAD4 BAEE Biochemical Assay). Settings: human PAD4, BAEE substrate; 5 nM PAD4, 2 mM calcium chloride, 3 mM BAEE; geometric mean of multiple experiments.
Outline: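 Deimination of BAEE substrate (3 mM) measured as ammonia via o-phthalaldehyde–DTT isoindole fluorescence, 405/535 nm. Tag-free bacterially expressed human PAD4 at 5 nM with 2 mM calcium chloride, pH 7.6 MOPS buffer, 30 min compound preincubation then 2 h reaction, both at 25 °C.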

Sequence of human PAD4 (Q9UM07 2-663): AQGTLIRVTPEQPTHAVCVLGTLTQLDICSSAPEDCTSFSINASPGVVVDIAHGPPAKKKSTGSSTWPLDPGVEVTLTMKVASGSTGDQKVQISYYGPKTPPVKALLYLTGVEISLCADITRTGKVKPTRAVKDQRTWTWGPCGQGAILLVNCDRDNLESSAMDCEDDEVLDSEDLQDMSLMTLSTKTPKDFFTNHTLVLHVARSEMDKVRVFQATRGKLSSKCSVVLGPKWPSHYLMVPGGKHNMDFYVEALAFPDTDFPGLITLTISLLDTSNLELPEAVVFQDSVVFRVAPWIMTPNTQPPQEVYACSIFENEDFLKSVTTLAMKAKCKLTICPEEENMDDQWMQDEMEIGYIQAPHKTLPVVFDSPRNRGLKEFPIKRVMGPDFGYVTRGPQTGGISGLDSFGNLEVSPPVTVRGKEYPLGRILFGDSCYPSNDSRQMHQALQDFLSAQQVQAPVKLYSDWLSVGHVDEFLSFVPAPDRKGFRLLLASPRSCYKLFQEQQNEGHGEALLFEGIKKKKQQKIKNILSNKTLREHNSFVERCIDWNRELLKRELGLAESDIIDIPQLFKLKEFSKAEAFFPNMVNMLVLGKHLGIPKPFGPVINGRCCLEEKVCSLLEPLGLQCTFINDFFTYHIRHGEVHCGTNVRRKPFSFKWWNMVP

SMILES | IC50
COc1cc(C(=O)N2C[C@H](N)CCN2C)cc2nc(-c3cc4ccc([C@@H](C)NC(=O)c5ccc(F)cc5C)nc4n3CC3CC3)n(C)c12 [Example 195, N-((R)-1-(2-(5-((R)-5-amino-2-methylhexahydropyridazine-1-carbonyl)-7-methoxy-1-methyl-1H-benzo[d]imidazol-2-yl)-1-(cyclopropylmethyl)-1H-pyrrolo[2,3-b]pyridin-6-yl)ethyl)-4-fluoro-2-methylbenzamide] | 102 nM
COc1cc(C(=O)N2C[C@H](N)CCN2C)cc2nc(-c3cc4ccc([C@@H](C)NC(=O)c5ccccc5C(F)(F)F)nc4n3CC3CC3)n(C)c12 [Example 196, N-((R)-1-(2-(5-((R)-5-amino-2-methylhexahydropyridazine-1-carbonyl)-7-methoxy-1-methyl-1H-benzo[d]imidazol-2-yl)-1-(cyclopropylmethyl)-1H-pyrrolo[2,3-b]pyridin-6-yl)ethyl)-2-(trifluoromethyl)benzamide] | 129 nM
COc1cc(C(=O)N2C[C@H](N)CCN2C)cc2nc(-c3cc4ccc([C@@H](C)NC(=O)c5cc(F)ccc5C)nc4n3CC3CC3)n(C)c12 [Example 197, N-((R)-1-(2-(5-((R)-5-amino-2-methylhexahydropyridazine-1-carbonyl)-7-methoxy-1-methyl-1H-benzo[d]imidazol-2-yl)-1-(cyclopropylmethyl)-1H-pyrrolo[2,3-b]pyridin-6-yl)ethyl)-5-fluoro-2-methylbenzamide] | 116 nM
COc1cc(C(=O)N2C[C@H](N)CCN2C)cc2nc(-c3cc4ccc([C@@H](C)NC(=O)c5c(F)cccc5C(F)(F)F)nc4n3CC3CC3)n(C)c12 [Example 198, N-((R)-1-(2-(5-((R)-5-amino-2-methylhexahydropyridazine-1-carbonyl)-7-methoxy-1-methyl-1H-benzo[d]imidazol-2-yl)-1-(cyclopropylmethyl)-1H-pyrrolo[2,3-b]pyridin-6-yl)ethyl)-2-fluoro-6-(trifluoromethyl)benzamide] | 166 nM
COc1cc(C(=O)N2C[C@H](N)CCN2C)cc2nc(-c3cc4ccc([C@@H](C)NC(=O)C5(c6ccc(F)cc6)CC5)nc4n3CC3CC3)n(C)c12 [Example 199, N-((R)-1-(2-(5-((R)-5-amino-2-methylhexahydropyridazine-1-carbonyl)-7-methoxy-1-methyl-1H-benzo[d]imidazol-2-yl)-1-(cyclopropylmethyl)-1H-pyrrolo[2,3-b]pyridin-6-yl)ethyl)-1-(4-fluorophenyl)cyclopropane-1-carboxamide] | 340 nM
COc1cc(C(=O)N2C[C@H](N)CCN2C)cc2nc(-c3cc4ccc([C@@H](C)NC(=O)C5(C)CC5)nc4n3CC3CC3)n(C)c12 [Example 200, N-((R)-1-(2-(5-((R)-5-amino-2-methylhexahydropyridazine-1-carbonyl)-7-methoxy-1-methyl-1H-benzo[d]imidazol-2-yl)-1-(cyclopropylmethyl)-1H-pyrrolo[2,3-b]pyridin-6-yl)ethyl)-1-methylcyclopropane-1-carboxamide] | 64.2 nM
COc1cc(C(=O)N2C[C@H](N)CCN2C)cc2nc(-c3cc4ccc([C@@H](C)NC(=O)c5cccnc5)nc4n3CC3CC3)n(C)c12 [Example 201, N-((R)-1-(2-(5-((R)-5-amino-2-methylhexahydropyridazine-1-carbonyl)-7-methoxy-1-methyl-1H-benzo[d]imidazol-2-yl)-1-(cyclopropylmethyl)-1H-pyrrolo[2,3-b]pyridin-6-yl)ethyl)nicotinamide] | 67.7 nM
COc1cc(C(=O)N2[C@H]3CC[C@@H]2[C@H](N)C3)cc2nc(-c3cc4ccc([C@@H](C)NC(=O)[C@@H]5CC5(F)F)nc4n3CC3CC3)n(C)c12 [Example 202, (S)-N-((R)-1-(2-(5-((1R,2R,4S)-2-amino-7-azabicyclo[2.2.1]heptane-7-carbonyl)-7-methoxy-1-methyl-1H-benzo[d]imidazol-2-yl)-1-(cyclopropylmethyl)-1H-pyrrolo[2,3-b]pyridin-6-yl)ethyl)-2,2-difluorocyclopropane-1-carboxamide] | 58.7 nM
COc1cc(C(=O)N2[C@H]3CC[C@@H]2[C@H](N)C3)cc2nc(-c3cc4ccc([C@@H](C)NC(=O)c5ccccc5C(F)F)nc4n3CC3CC3)n(C)c12 [Example 203, N-((R)-1-(2-(5-((1R,2R,4S)-2-amino-7-azabicyclo[2.2.1]heptane-7-carbonyl)-7-methoxy-1-methyl-1H-benzo[d]imidazol-2-yl)-1-(cyclopropylmethyl)-1H-pyrrolo[2,3-b]pyridin-6-yl)ethyl)-2-(difluoromethyl)benzamide] | 155 nM
COc1cc(C(=O)N2[C@H]3CC[C@@H]2[C@H](N)C3)cc2nc(-c3cc4ccc([C@@H](C)NC(=O)C5CC(F)(F)C5)nc4n3CC3CC3)n(C)c12 [Example 204, N-((R)-1-(2-(5-((1R,2R,4S)-2-amino-7-azabicyclo[2.2.1]heptane-7-carbonyl)-7-methoxy-1-methyl-1H-benzo[d]imidazol-2-yl)-1-(cyclopropylmethyl)-1H-pyrrolo[2,3-b]pyridin-6-yl)ethyl)-3,3-difluorocyclobutane-1-carboxamide] | 47.4 nM
COc1cc(C(=O)N2[C@H]3CC[C@@H]2[C@H](N)C3)cc2nc(-c3cc4ccc([C@@H](C)NC(=O)c5cnn(C(F)F)c5)nc4n3CC3CC3)n(C)c12 [Example 205, N-((R)-1-(2-(5-((1R,2R,4S)-2-amino-7-azabicyclo[2.2.1]heptane-7-carbonyl)-7-methoxy-1-methyl-1H-benzo[d]imidazol-2-yl)-1-(cyclopropylmethyl)-1H-pyrrolo[2,3-b]pyridin-6-yl)ethyl)-1-(difluoromethyl)-1H-pyrazole-4-carboxamide] | 79.7 nM
COc1cc(C(=O)N2[C@H]3CC[C@@H]2[C@H](N)C3)cc2nc(-c3cc4ccc([C@@H](C)NC(=O)c5cnn(C)c5)nc4n3CC3CC3)n(C)c12 [Example 206, N-((R)-1-(2-(5-((1R,2R,4S)-2-amino-7-azabicyclo[2.2.1]heptane-7-carbonyl)-7-methoxy-1-methyl-1H-benzo[d]imidazol-2-yl)-1-(cyclopropylmethyl)-1H-pyrrolo[2,3-b]pyridin-6-yl)ethyl)-1-methyl-1H-pyrazole-4-carboxamide] | 45.5 nM
COc1cc(C(=O)N2[C@H]3CC[C@@H]2[C@H](N)C3)cc2nc(-c3cc4ccc([C@@H](C)NC(=O)C5(C(F)(F)F)CC5)nc4n3CC3CC3)n(C)c12 [Example 207, N-((R)-1-(2-(5-((1R,2R,4S)-2-amino-7-azabicyclo[2.2.1]heptane-7-carbonyl)-7-methoxy-1-methyl-1H-benzo[d]imidazol-2-yl)-1-(cyclopropylmethyl)-1H-pyrrolo[2,3-b]pyridin-6-yl)ethyl)-1-(trifluoromethyl)cyclopropane-1-carboxamide] | 240 nM
COc1cc(C(=O)N2[C@H]3CC[C@@H]2[C@H](N)C3)cc2nc(-c3cc4ccc([C@@H](C)NC(=O)c5ccc(F)cc5)nc4n3CC3CC3)n(C)c12 [Example 208, N-((R)-1-(2-(5-((1R,2R,4S)-2-amino-7-azabicyclo[2.2.1]heptane-7-carbonyl)-7-methoxy-1-methyl-1H-benzo[d]imidazol-2-yl)-1-(cyclopropylmethyl)-1H-pyrrolo[2,3-b]pyridin-6-yl)ethyl)-4-fluorobenzamide] | 138 nM
COc1cc(C(=O)N2C[C@H](N)CCN2C)cc2nc(-c3cc4ccc(C(C)(C)NC(=O)c5ccccc5)nc4n3CC3CC3)n(C)c12 [Example 209] | 199 nM
COc1cc(C(=O)N2C[C@H](N)CCN2C)cc2nc(-c3cc4ccc([C@@H](C)NC(=O)c5c(F)cccc5F)nc4n3CC3CC3)n(C)c12 [Example 210, N-((R)-1-(2-(5-((R)-5-amino-2-methylhexahydropyridazine-1-carbonyl)-7-methoxy-1-methyl-1H-benzo[d]imidazol-2-yl)-1-(cyclopropylmethyl)-1H-pyrrolo[2,3-b]pyridin-6-yl)ethyl)-2,6-difluorobenzamide] | 129 nM
COc1cc(C(=O)N2[C@H]3CC[C@@H]2[C@H](N)C3)cc2nc(-c3cc4ccc([C@@H](C)NC(=O)C(C)n5cccn5)nc4n3CC3CC3)n(C)c12 (stereo partly drawn) [Example 211, N-((R)-1-(2-(5-((1R,2R,4S)-2-amino-7-azabicyclo[2.2.1]heptane-7-carbonyl)-7-methoxy-1-methyl-1H-benzo[d]imidazol-2-yl)-1-(cyclopropylmethyl)-1H-pyrrolo[2,3-b]pyridin-6-yl)ethyl)-2-(1H-pyrazol-1-yl)propanamide] | 92 nM
COc1cc(C(=O)N2C[C@H](N)CCN2C)cc2nc(-c3cc4ccc([C@@H](C)NC(=O)c5cccc(F)c5C)nc4n3CC3CC3)n(C)c12 [Example 212, N-((R)-1-(2-(5-((R)-5-amino-2-methylhexahydropyridazine-1-carbonyl)-7-methoxy-1-methyl-1H-benzo[d]imidazol-2-yl)-1-(cyclopropylmethyl)-1H-pyrrolo[2,3-b]pyridin-6-yl)ethyl)-3-fluoro-2-methylbenzamide] | 170 nM
COc1cc(C(=O)N2C[C@H](N)CCN2C)cc2nc(-c3cc4ccc([C@@H](C)NC(=O)c5cc(F)cc(F)c5C)nc4n3CC3CC3)n(C)c12 [Example 213, N-((R)-1-(2-(5-((R)-5-amino-2-methylhexahydropyridazine-1-carbonyl)-7-methoxy-1-methyl-1H-benzo[d]imidazol-2-yl)-1-(cyclopropylmethyl)-1H-pyrrolo[2,3-b]pyridin-6-yl)ethyl)-3,5-difluoro-2-methylbenzamide] | 134 nM
COc1cc(C(=O)N2C[C@H](N)CCN2C)cc2nc(-c3cc4ccc([C@@H](C)NC(=O)c5ccc(C)nc5C)nc4n3CC3CC3)n(C)c12 [Example 214, N-((R)-1-(2-(5-((R)-5-amino-2-methylhexahydropyridazine-1-carbonyl)-7-methoxy-1-methyl-1H-benzo[d]imidazol-2-yl)-1-(cyclopropylmethyl)-1H-pyrrolo[2,3-b]pyridin-6-yl)ethyl)-2,6-dimethylnicotinamide] | 100 nM

— US11878965B2, “Inhibitors of peptidylarginine deiminases” (Gilead Sciences, Inc., priority 2020, dated 2024)
